Results: PubChem BioAssay AID206 (DTP/NCI, 2004)
Results filed as inconclusive are left out.

Test system: nude mice, HT29 intrarenal xenograft, tumor weight T/C
Test: NCI In Vivo Anticancer Drug Screen. Data for tumor model HT29;CX-1 Human Adenocarcinoma (MER+) (intrarenal inoculation) in NU/NU Swiss (nude) mice
Conditions: endpoint: mean tumor weight change, higher = larger tumour
Outline: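 Mice with transplanted tumors are dosed with compound while controls get vehicle only. Survival or tumor burden is then assessed per group, and the treated value is expressed relative to control.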

[1] = dose: 200.0 mg/kg/injection, schedule: Q04DX004 (sc), vehicle: saline with Tween-80
[2] = dose: 400.0 mg/kg/injection, schedule: Q04DX004 (sc), vehicle: saline with Tween-80
[3] = dose: 800.0 mg/kg/injection, schedule: Q04DX004 (sc), vehicle: saline with Tween-80
[4] = dose: 12.0 mg/kg/injection, schedule: Q04DX004 (sc), vehicle: Klucel (hydroxypropylcellulose) (HPC)
[5] = dose: 75.0 mg/kg/injection, schedule: Q04DX004 (sc), vehicle: saline with Tween-80
[6] = dose: 150.0 mg/kg/injection, schedule: Q04DX004 (sc), vehicle: saline with Tween-80
[7] = dose: 600.0 mg/kg/injection, schedule: Q04DX004 (sc), vehicle: saline with Tween-80
[8] = dose: 50.0 mg/kg/injection, schedule: Q04DX004 (sc), vehicle: saline with Tween-80

In the case of `CC1=CC(C)(C)Nc2ccc(CSc3ccccc3)cc21`, the T/C (dose: 75.0 mg/kg/injection, schedule: Q01DX010 (sc), vehicle: saline + Tween-80 + alcohol) is reported as 53 % of control, the T/C (dose: 150.0 mg/kg/injection, schedule: Q01DX010 (sc), vehicle: saline + Tween-80 + alcohol) is reported as 74 % of control and the T/C (dose: 300.0 mg/kg/injection, schedule: Q01DX010 (sc), vehicle: saline + Tween-80 + alcohol) is reported as 50 % of control. For the same compound, the T/C (dose: 600.0 mg/kg/injection, schedule: Q01DX010 (sc), vehicle: saline + Tween-80 + alcohol) was 66 % of control.

In the case of `CC(Oc1ccccc1-c1ccccc1)C(=O)N(C)C` (centres undefined), the T/C [1] is reported as 115 % of control, the T/C [2] is reported as 63 % of control and the T/C [3] is reported as 89 % of control. For the same compound, the T/C (dose: 1600.0 mg/kg/injection, schedule: Q04DX004 (sc), vehicle: saline with Tween-80) was 55 % of control.

In the case of `ClCC[Se](Cl)(Cl)c1ccccc1`, the T/C (dose: 12.5 mg/kg/injection, schedule: Q04DX004 (sc), vehicle: saline) is reported as 154 % of control and the T/C (dose: 50.0 mg/kg/injection, schedule: Q04DX004 (sc), vehicle: saline) is reported as 100 % of control.

With `COCC(O)Cn1ccnc1[N+](=O)[O-]` (centres undefined) the T/C (dose: 300.0 mg/kg/injection, schedule: Q04DX004 (sc), vehicle: suspension in saline) was 86 % of control, the T/C (dose: 600.0 mg/kg/injection, schedule: Q04DX004 (sc), vehicle: suspension in saline) was 80 % of control and the T/C (dose: 1200.0 mg/kg/injection, schedule: Q04DX004 (sc), vehicle: suspension in saline) was 75 % of control.

With `COC1=C2C[C@@H](C)C[C@@H](OC)[C@@H](O)[C@H](C)/C=C(\C)[C@@H](OC(N)=O)[C@H](OC)/C=C\C=C(/C)C(=O)NC(=CC1=O)C2=O` the T/C (dose: 2.0 mg/kg/injection, schedule: Q04DX004 (sc), vehicle: saline) was 110 % of control, the T/C (dose: 4.0 mg/kg/injection, schedule: Q04DX004 (sc), vehicle: saline) was 113 % of control and the T/C (dose: 8.0 mg/kg/injection, schedule: Q04DX004 (sc), vehicle: saline) was 54 % of control. For the same compound, the T/C (dose: 16.0 mg/kg/injection, schedule: Q04DX004 (sc), vehicle: saline) was 59 % of control.

For `CC1(C)N=C(N)N=C(N)N1c1ccc(F)c(C(F)(F)F)c1`, the T/C (dose: 3.12 mg/kg/injection, schedule: Q01DX010 (sc), vehicle: saline) was 103 % of control, the T/C (dose: 6.25 mg/kg/injection, schedule: Q01DX010 (sc), vehicle: saline) was 84 % of control and the T/C (dose: 12.5 mg/kg/injection, schedule: Q01DX010 (sc), vehicle: saline) was 49 % of control. For the same compound, the T/C (dose: 25.0 mg/kg/injection, schedule: Q01DX010 (sc), vehicle: saline) was 124 % of control.

For `C[C@H](N)C(=O)N[C@@H]1[C@H]2C(=C(O)C[C@@H](O)[C@@H]2O)C(=O)O[C@@H]1C`, the T/C (dose: 300.0 mg/kg/injection, schedule: Q04DX004 (sc), vehicle: saline) was 107 % of control, the T/C (dose: 600.0 mg/kg/injection, schedule: Q04DX004 (sc), vehicle: saline) was 81 % of control and the T/C (dose: 1200.0 mg/kg/injection, schedule: Q04DX004 (sc), vehicle: saline) was 68 % of control. The T/C (dose: 2400.0 mg/kg/injection, schedule: Q04DX004 (sc), vehicle: saline) was 92 % of control.

`CC1OC1C(=O)C1(O)C(C)C(O)C23OC2(C(O)c2c(O)cccc2C3=O)C1O` (centres undefined) was tested, and the T/C [4] was 172 % of control, the T/C (dose: 24.0 mg/kg/injection, schedule: Q04DX004 (sc), vehicle: Klucel (hydroxypropylcellulose) (HPC)) was 99 % of control and the T/C (dose: 48.0 mg/kg/injection, schedule: Q04DX004 (sc), vehicle: Klucel (hydroxypropylcellulose) (HPC)) was 92 % of control.

`CCCCCCCCNc1cc2c3c(c1)CCCN3CCC2` was tested, and the T/C (dose: 3.0 mg/kg/injection, schedule: Q04DX004 (sc), vehicle: Klucel (hydroxypropylcellulose) (HPC)) was 69 % of control, the T/C (dose: 6.0 mg/kg/injection, schedule: Q04DX004 (sc), vehicle: Klucel (hydroxypropylcellulose) (HPC)) was 103 % of control and the T/C [4] was 73 % of control.

In the case of `O=c1[nH]c(=O)n(C2CC(O)C(CO)O2)cc1Br` (centres undefined), the T/C (dose: 600.0 mg/kg/injection, schedule: Q04DX004 (sc), vehicle: Klucel (hydroxypropylcellulose) (HPC)) is reported as 157 % of control, the T/C (dose: 1200.0 mg/kg/injection, schedule: Q04DX004 (sc), vehicle: Klucel (hydroxypropylcellulose) (HPC)) is reported as 91 % of control and the T/C (dose: 2400.0 mg/kg/injection, schedule: Q04DX004 (sc), vehicle: Klucel (hydroxypropylcellulose) (HPC)) is reported as 59 % of control.

In the case of `C[Si](C)(CCl)N[Si](C)(C)CCl`, the T/C [5] is reported as 91 % of control, the T/C [6] is reported as 84 % of control and the T/C (dose: 300.0 mg/kg/injection, schedule: Q04DX004 (sc), vehicle: saline with Tween-80) is reported as 101 % of control. The T/C [7] was 78 % of control.

With `Nc1nc2c(C(=O)N3CCCC3)nnn2c2ccccc12` the T/C [5] was 157 % of control.

In the case of `COC1C(O)CC(OC2CC(Oc3cc4cc5c(c(O)c4c(O)c3C)C(=O)[C@@H](OC3CC(OC4CC(OC6CC(C)(O)C(OC(C)=O)C(C)O6)C(O)C(C)O4)C(O)C(C)O3)[C@H]([C@H](OC)C(=O)[C@@H](O)[C@@H](C)O)C5)OC(C)C2OC(C)=O)OC1C` (some centres undefined), the T/C (dose: 0.19 mg/kg/injection, schedule: Q04DX004 (sc), vehicle: Klucel (hydroxypropylcellulose) (HPC)) is reported as 103 % of control, the T/C (dose: 0.3 mg/kg/injection, schedule: Q04DX004 (sc), vehicle: Klucel (hydroxypropylcellulose) (HPC)) is reported as 39 % of control and the T/C (dose: 0.38 mg/kg/injection, schedule: Q04DX004 (sc), vehicle: Klucel (hydroxypropylcellulose) (HPC)) is reported as 85 % of control. The T/C (dose: 0.75 mg/kg/injection, schedule: Q04DX004 (sc), vehicle: Klucel (hydroxypropylcellulose) (HPC)) was 89 % of control, the T/C (dose: 1.2 mg/kg/injection, schedule: Q04DX004 (sc), vehicle: Klucel (hydroxypropylcellulose) (HPC)) was 46 % of control and the T/C (dose: 1.5 mg/kg/injection, schedule: Q04DX004 (sc), vehicle: Klucel (hydroxypropylcellulose) (HPC)) was 21 % of control.

For `CCCCN(CCCC)C(Cl)=Nc1ccccc1`, the T/C (dose: 100.0 mg/kg/injection, schedule: Q04DX004 (sc), vehicle: other) was 103 % of control, the T/C (dose: 200.0 mg/kg/injection, schedule: Q04DX004 (sc), vehicle: other) was 100 % of control and the T/C (dose: 400.0 mg/kg/injection, schedule: Q04DX004 (sc), vehicle: other) was 96 % of control. The T/C (dose: 800.0 mg/kg/injection, schedule: Q04DX004 (sc), vehicle: other) was 91 % of control.

In the case of `O=c1cc(-c2ccccc2)[nH]c2c1CCCC2`, the T/C (dose: 100.0 mg/kg/injection, schedule: Q04DX004 (sc), vehicle: saline with Tween-80) is reported as 82 % of control, the T/C [1] is reported as 70 % of control and the T/C [2] is reported as 67 % of control. The T/C [7] was 37 % of control, the T/C [3] was 68 % of control and the T/C (dose: 1200.0 mg/kg/injection, schedule: Q04DX004 (sc), vehicle: saline with Tween-80) was 58 % of control. The T/C (dose: 2400.0 mg/kg/injection, schedule: Q04DX004 (sc), vehicle: saline with Tween-80) was 101 % of control.

With `C/C=C/c1cc2c(c(=O)o1)C(=O)[C@@H](O)[C@H](C)O2` the T/C [8] was 107 % of control and the T/C [1] was 79 % of control.

With `Nc1nc(N)c2c(ccc3c2ccn3Cc2cccc([N+](=O)[O-])c2)n1` the T/C (dose: 6.25 mg/kg/injection, schedule: Q04DX004 (sc), vehicle: saline with Tween-80) was 97 % of control, the T/C (dose: 12.5 mg/kg/injection, schedule: Q04DX004 (sc), vehicle: saline with Tween-80) was 78 % of control and the T/C (dose: 25.0 mg/kg/injection, schedule: Q04DX004 (sc), vehicle: saline with Tween-80) was 57 % of control. The T/C [8] was 77 % of control, the T/C [5] was 157 % of control and the T/C [6] was 54 % of control.

In the case of `CC(=O)NC(Cc1ccc(F)cc1)C(=O)O` (centres undefined), the T/C (dose: 225.0 mg/kg/injection, schedule: Q04DX004 (sc), vehicle: saline with Tween-80) is reported as 108 % of control, the T/C (dose: 450.0 mg/kg/injection, schedule: Q04DX004 (sc), vehicle: saline with Tween-80) is reported as 114 % of control and the T/C (dose: 900.0 mg/kg/injection, schedule: Q04DX004 (sc), vehicle: saline with Tween-80) is reported as 83 % of control. The T/C (dose: 1800.0 mg/kg/injection, schedule: Q04DX004 (sc), vehicle: saline with Tween-80) was 106 % of control.

With `Cc1ccccc1N(CC1CO1)CC1CO1` (centres undefined) the T/C (dose: 50.0 mg/kg/injection, schedule: Q01DX010 (sc), vehicle: suspension in saline) was 157 % of control, the T/C (dose: 100.0 mg/kg/injection, schedule: Q01DX010 (sc), vehicle: suspension in saline) was 38 % of control and the T/C (dose: 200.0 mg/kg/injection, schedule: Q01DX010 (sc), vehicle: suspension in saline) was 15 % of control. For the same compound, the T/C (dose: 800.0 mg/kg/injection, schedule: Q01DX010 (sc), vehicle: suspension in saline) was 67 % of control.

`O=Cc1ccccc1` was tested, and the T/C (dose: 200.0 mg/kg/injection, schedule: Q04DX004 (sc), vehicle: Klucel (hydroxypropylcellulose) (HPC)) was 119 % of control and the T/C (dose: 400.0 mg/kg/injection, schedule: Q04DX004 (sc), vehicle: Klucel (hydroxypropylcellulose) (HPC)) was 107 % of control.
